Measurements: PubChem BioAssay AID2060617 (Molecular Pharmacology Branch, DTP, NCI, 2025)
“And” between values parts separate entries of the source, which are not always exact repeats. Equal values may be shown once.

Test system: 485368-065-R4-J2-PDC spheroids with HUVEC/MSC, viability
Assay: Anticancer human tumor 485368-065-R4-J2-PDC patient-derived pancreatic carcinoma cell line growth inhibition [CLK]
Conditions: for viability, T/C: stronger effect = lower value
Source text: A high-throughput screen of multi-cell type tumor spheroids was designed to identify active combinations of […] and targeted small molecules. Complex spheroids include a stromal component modeled by human endothelial cells (HUVEC) and fibroblasts modeled by human mesenchymal stem cells (MSCs). The concentration ranges selected for each drug and investigational agent were based upon clinically achievable concentrations if the clinical Cmax of the agent was known.
Compounds. The drugs and investigational agents: cirtuvivint (SM08502; NSC835563), CC-671 (NSC850746), vemurafenib (NSC761431), tapotoclax (NSC804041), sotorasib (NSC818433), adagrasib (NSC831453), MRTX-1133 (NSC836407), BAY2416964 (NSC825713), copanlisib (NSC816437), inavolisib (NSC800729), abemaciclib (NSC768073), osimertinib (NSC779217), entinostat (NSC756642), eltanexor (KPT-8602, NSC794443), venetoclax (NSC766270), ceralasertib (NSC777638), bortezomib (NSC756655), olaparib (NSC753686), talazoparib (NSC767125), alisertib (NSC759677), peposertib (NSC802822), gemcitabine (NSC613327), 5-fluorouracil (NSC19893), SN-38 (NSC673596), oxaliplatin (NSC266046), paclitaxel (NSC125973), and doxorubicin (NSC123127), were obtained from the National Cancer Institute (NCI) Developmental Therapeutics Program Chemical Repository. The FDA-approved anticancer drug set is available from the Developmental Therapeutics Program at https://dtp.cancer.gov/organization/dscb/obtaining/available plates.htm. […] The stock solutions were prepared in dimethyl sulfoxide (DMSO, Sigma-Aldrich, St. Louis, MO, cat. D2650), except for the platinum complexes which were prepared in saline (Quality Biological, Gaithersburg, MD, cat. 114-055-101), at 800-fold the tested concentration and stored at -70 degrees C prior to their use. All drugs and investigational agents were tested over a range starting from a high concentration at or near the clinical Cmax and decreasing in half-log increments. If the clinical Cmax for an agent had not been determined, the highest concentration tested was 10 microM.
Cell Culture. All cells were maintained in an incubator at 37 degrees C and 5% CO2 with 95% humidity. The PDC lines were cultured according to standard operating procedures established by the NCI PDMR. Briefly, all PDCs were thawed and cultured in Matrigel-coated flasks prepared with a working solution of 1X Ham's F-12 nutrient mix, without supplementation (Invitrogen, Waltham, MA, cat. 11765054), 100 U/mL penicillin-streptomycin (Invitrogen, cat. 15140122), and 2.5% Matrigel (Corning Inc., Corning, NY, cat. 354248) for the first three passages. The 947758-054-R-J2-PDC line was cultured in 6B/Colon 1A media, which includes advanced DMEM/F-12 (Thermo Fisher Scientific, cat. 12634028), 10 mM HEPES (Thermo Fisher Scientific, cat. 15630080), 1X GlutaMAX supplement (Thermo Fisher Scientific, cat. 35050061), 0.1 mg/mL primocin (InvivoGen, cat. ant-pm-2), 10% defined fetal bovine serum, heat inactivated (HyClone Laboratories Inc., cat. SH30070.03HI), 1.25 mM N-Acetyl-L-cysteine (Sigma-Aldrich, cat. A9165), 10 mM nicotinamide (Sigma-Aldrich, cat. N0636), 1X B-27 supplement (Thermo Fisher Scientific, cat. 17504044), 1X N-2 supplement (Thermo Fisher Scientific, cat. 17502048), and 10 microM Y-27632 dihydrochloride (Tocris Bioscience, cat. 1254). The 876862-298-R-J1-PDC was cultured in 6E media, which includes all 6B/Colon 1A media components plus 50% L-WRN conditioned media (ATCC, cat. CRL-3276), 50 ng/mL recombinant human EGF recombinant protein (hEGF; Thermo Fisher Scientific, cat. PHG0311), 10 ng/mL recombinant human fibroblast growth factor 10 (hGFG-10; PeproTech, cat. 100-26), 1 ng/mL recombinant human fibroblast growth factor 2 (hFGF-2; PeproTech, cat. 100-18B), and 1 µM prostaglandin E2 (PGE2; Tocris, cat. 2296). The 227483-062-R1-J1-PDC line was cultured in Panc media, containing all 6E components except hFGF-2, with the addition of 500 nM SB-431542 (Selleckchem, cat. S1067) and 10 nM gastrin (Tocris, cat. 3006). […]

[1] = curve of first compound, second compound 0.0316 µM
[2] = curve of first compound, second compound 0.1 µM
[3] = curve of first compound, second compound 0.316 µM
[4] = curve of first compound, second compound 1 µM
[5] = curve of first compound, second compound 3.16 µM
[6] = curve of first compound, second compound 10 µM
[7] = second compound 0.0316 µM, first compound 0.0316 µM
[8] = second compound 0.0316 µM, first compound 0.1 µM
[9] = second compound 0.0316 µM, first compound 0.316 µM
[10] = second compound 0.0316 µM, first compound 1 µM
[11] = second compound 0.0316 µM, first compound 3.16 µM
[12] = second compound 0.0316 µM, first compound 10 µM
[13] = second compound 0.1 µM, first compound 0.0316 µM
[14] = second compound 0.1 µM, first compound 0.1 µM
[15] = second compound 0.1 µM, first compound 0.316 µM
[16] = second compound 0.1 µM, first compound 1 µM
[17] = second compound 0.1 µM, first compound 3.16 µM
[18] = second compound 0.1 µM, first compound 10 µM
[19] = second compound 0.316 µM, first compound 0.0316 µM
[20] = second compound 0.316 µM, first compound 0.1 µM
[21] = second compound 0.316 µM, first compound 0.316 µM
[22] = second compound 0.316 µM, first compound 1 µM
[23] = second compound 0.316 µM, first compound 3.16 µM
[24] = second compound 0.316 µM, first compound 10 µM
[25] = second compound 1 µM, first compound 0.0316 µM
[26] = second compound 1 µM, first compound 0.1 µM
[27] = second compound 1 µM, first compound 0.316 µM
[28] = second compound 1 µM, first compound 1 µM
[29] = second compound 1 µM, first compound 3.16 µM
[30] = second compound 1 µM, first compound 10 µM
[31] = second compound 3.16 µM, first compound 0.0316 µM
[32] = second compound 3.16 µM, first compound 0.1 µM
[33] = second compound 3.16 µM, first compound 0.316 µM
[34] = second compound 3.16 µM, first compound 1 µM
[35] = second compound 3.16 µM, first compound 3.16 µM
[36] = second compound 3.16 µM, first compound 10 µM
[37] = second compound 10 µM, first compound 0.0316 µM
[38] = second compound 10 µM, first compound 0.1 µM
[39] = second compound 10 µM, first compound 0.316 µM
[40] = second compound 10 µM, first compound 1 µM
[41] = second compound 10 µM, first compound 3.16 µM
[42] = second compound 10 µM, first compound 10 µM
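Note: spheroids exposed to compounds for seven days.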
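Throughout, for viability, T/C: 100% = DMSO vehicle control wells.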

CC(CO)NC(=O)c1cc(-c2ccc(Cl)cc2)nn(-c2cnn(C)c2)c1=O (configuration not stated) + CNC(=O)c1ccc(Nc2nc(OC3CCCC3)c3c(-c4ccc5nc(C)oc5c4)c[nH]c3n2)c(OC)c1
IC50 [1]: > 10 µM
IC50 [2]: > 10 µM
IC50 [3]: > 10 µM
IC50 [4]: > 10 µM
IC50 [5]: > 10 µM
IC50 [6]: > 10 µM
viability, T/C [7]: 87.9%
viability, T/C [8]: 94.3%
viability, T/C [9]: 87.9%
viability, T/C [10]: 101%
viability, T/C [11]: 89.8%
viability, T/C [12]: 103%
viability, T/C [13]: 90.5%
viability, T/C [14]: 97%
viability, T/C [15]: 93.6%
viability, T/C [16]: 103%
viability, T/C [17]: 92.8%
viability, T/C [18]: 97.8%
viability, T/C [19]: 82.8%
viability, T/C [20]: 84.2%
viability, T/C [21]: 82.5%
viability, T/C [22]: 75.4%
viability, T/C [23]: 86.4%
viability, T/C [24]: 85.9%
viability, T/C [25]: 83.7%
viability, T/C [26]: 69.9%
viability, T/C [27]: 73.3%
viability, T/C [28]: 73.9%
viability, T/C [29]: 70.2%
viability, T/C [30]: 77.1%
viability, T/C [31]: 72.3%
viability, T/C [32]: 67.2%
viability, T/C [33]: 71%
viability, T/C [34]: 70.6%
viability, T/C [35]: 69.3%
viability, T/C [36]: 76%
viability, T/C [37]: 64.9%
viability, T/C [38]: 71.2%
viability, T/C [39]: 69.6%
viability, T/C [40]: 66.6%
viability, T/C [41]: 72.8%
viability, T/C [42]: 70.7%

O=c1[nH]cc(F)c(=O)[nH]1 + CN1CCN(c2cc(C(=O)Nc3cc4cc(-c5cnn(C)c5)ccc4cn3)ccn2)CC1
IC50 [1]: > 10 µM
IC50 [2]: > 10 µM
IC50 [3]: > 10 µM
IC50 [4]: < 0.0316 µM
IC50 [5]: < 0.0316 µM
IC50 [6]: < 0.0316 µM
viability, T/C [7]: 99.3%
viability, T/C [8]: 108%
viability, T/C [9]: 102%
viability, T/C [10]: 112%
viability, T/C [11]: 99.6%
viability, T/C [12]: 82%
viability, T/C [13]: 106%
viability, T/C [14]: 114%
viability, T/C [15]: 115%
viability, T/C [16]: 110%
viability, T/C [17]: 114%
viability, T/C [18]: 81.8%
viability, T/C [19]: 90%
viability, T/C [20]: 89.7%
viability, T/C [21]: 87.6%
viability, T/C [22]: 91.8%
viability, T/C [23]: 101%
viability, T/C [24]: 62%
viability, T/C [25]: 1.1%
viability, T/C [26]: 1.31%
viability, T/C [27]: 0.78%
viability, T/C [28]: 0.63%
viability, T/C [29]: 0.79%
viability, T/C [30]: 1.51%
viability, T/C [31]: 1.14%
viability, T/C [32]: 2.13%
viability, T/C [33]: 1.09%
viability, T/C [34]: 1.94%
viability, T/C [35]: 1.84%
viability, T/C [36]: 2%
viability, T/C [37]: 1.01%
viability, T/C [38]: 2.05%
viability, T/C [39]: 2.31%
viability, T/C [40]: 1.29%
viability, T/C [41]: 1.06%
viability, T/C [42]: 1.21%

CC1(C)CCC(CN2CCN(c3ccc(C(=O)NS(=O)(=O)c4ccc(NCC5CCOCC5)c([N+](=O)[O-])c4)c(Oc4cnc5[nH]ccc5c4)c3)CC2)=C(c2ccc(Cl)cc2)C1
viability, T/C (compound 0.0316 µM): 94.5% and 89%
viability, T/C (compound 0.1 µM): 101% and 106%
viability, T/C (compound 0.316 µM): 98.6% and 95%
viability, T/C (compound 1 µM): 100% and 93.7%
viability, T/C (compound 3.16 µM): 120% and 119%
viability, T/C (compound 10 µM): 33.1% and 28%
IC50 (curve of compound): 7.56 µM and 7.07 µM

CC1COCCN1c1cc(C2(S(C)(=N)=O)CC2)nc(-c2ccnc3[nH]ccc23)n1 (configuration not stated) + CN1CCN(c2cc(C(=O)Nc3cc4cc(-c5cnn(C)c5)ccc4cn3)ccn2)CC1
IC50 [1]: > 10 µM
IC50 [2]: > 10 µM
IC50 [3]: 6.83 µM
IC50 [4]: < 0.0316 µM
IC50 [5]: < 0.0316 µM
IC50 [6]: < 0.0316 µM
viability, T/C [7]: 102%
viability, T/C [8]: 111%
viability, T/C [9]: 102%
viability, T/C [10]: 119%
viability, T/C [11]: 118%
viability, T/C [12]: 107%
viability, T/C [13]: 107%
viability, T/C [14]: 119%
viability, T/C [15]: 113%
viability, T/C [16]: 120%
viability, T/C [17]: 103%
viability, T/C [18]: 90.9%
viability, T/C [19]: 88.5%
viability, T/C [20]: 88.3%
viability, T/C [21]: 74.8%
viability, T/C [22]: 75.2%
viability, T/C [23]: 60.3%
viability, T/C [24]: 44.4%
viability, T/C [25]: 1%
viability, T/C [26]: 1.87%
viability, T/C [27]: 1.95%
viability, T/C [28]: 1.83%
viability, T/C [29]: 1.71%
viability, T/C [30]: 2.07%
viability, T/C [31]: 1.39%
viability, T/C [32]: 2.33%
viability, T/C [33]: 2.68%
viability, T/C [34]: 2.72%
viability, T/C [35]: 3.59%
viability, T/C [36]: 1.89%
viability, T/C [37]: 1.49%
viability, T/C [38]: 2.62%
viability, T/C [39]: 2.44%
viability, T/C [40]: 1.98%
viability, T/C [41]: 1.76%
viability, T/C [42]: 3.15%

C#Cc1c(F)ccc2cc(O)cc(-c3ncc4c(N5CC6CCC(C5)N6)nc(OCC56CCCN5CC(F)C6)nc4c3F)c12 (configuration not stated)
viability, T/C (compound 0.0316 µM): 99.6% and 90.9%
viability, T/C (compound 0.1 µM): 97.5% and 111%
viability, T/C (compound 0.316 µM): 102% and 103%
viability, T/C (compound 1 µM): 98.2% and 102%
viability, T/C (compound 3.16 µM): 117% and 107%
viability, T/C (compound 10 µM): 114% and 106%
IC50 (curve of compound): > 10 µM

Nc1ccccc1NC(=O)c1ccc(CNC(=O)OCc2cccnc2)cc1
viability, T/C (compound 0.0316 µM): 83.9% and 90.3%
viability, T/C (compound 0.1 µM): 105% and 96.6%
viability, T/C (compound 0.316 µM): 94.3% and 91.9%
viability, T/C (compound 1 µM): 92.6% and 90.3%
viability, T/C (compound 3.16 µM): 88.2% and 84.8%
viability, T/C (compound 10 µM): 31.5% and 37%
IC50 (curve of compound): 6.87 µM and 7.34 µM
